Experimental data as given in patent US10865211B2 (ENANTA PHARMACEUTICALS, INC, priority 2018, dated 2020).

Legend:
[1] = Compound induced cellular toxicity in HepG2 cells (ATPlite); type: cell-based; settings: human, three days, ATPlite 1 Step, concentration reducing total ATP levels by 50% relative to no drug controls
Protocol: At day 3, post seeding cells are treated with ATPlite 1 Step according to the manufacturer's instructions.

2.2.15 cells = test: Antiviral activity in 2.2.15 cells: reduction of viral product accumulation (qPCR, HBsAg/HBeAg ELISA); type: cell-based, HBV; settings: Hepatitis B virus, 120 h, day 5 post treatment, concentration reducing viral product accumulation in cell lysates or supernatants by 50% relative to no drug controls
Protocol: 2.2.15 cells are passaged upon attaining confluency in DMEM/F12 media in the presence of 10% FBS, Penn/Strep, and 250 ug/mL G418. Novel compounds are 5 fold serially diluted in DMSO and added to 96 well plates containing 35,000 cells/well at a 1:200 dilution so that the final concentration of DMSO is 0.5%. On day 5, post treatment cell lysates and supernatants are harvested for analysis.
Cells are lysed using Agilent Sidestep Lysis buffer, diluted 1:100 and quantified via quantitative real time PCR. Commercially available ELISA kits are used to quantitate the viral proteins HBsAg (Alpco) or HBeAg (US Biological) by following the manufacturer's recommended protocol after diluting samples to match the linear range of their respective assays. Irrespective of readout, compound concentrations that reduce viral product accumulation in the cell lysates or supernatants by 50% relative to no drug controls (EC50) are reported; EC50 ranges are as follows: A<0.1 μM; B 0.1-1 μM; C>1 μM.

| Compound | CC50 at 3 days [1] [µM] | EC50 (2.2.15 cells) [µM] |
| --- | --- | --- |
| CC(C)(C)[C@@H]1Cc2c(oc3c(-c4ccn[nH]4)cccc23)-c2c(F)c(=O)c(C(=O)O)cn21 [Example 51, (S)-6-(tert-butyl)-1-fluoro-2-oxo-11-(1H-pyrazol-5-yl)-6,7-dihydro-2H-benzofuro[2,3-a]quinolizine-3-carboxylic acid] | > 25 | < 0.1 |
| CC(C)(C)[C@@H]1Cc2c(oc3c(-c4cnsc4)cccc23)-c2c(F)c(=O)c(C(=O)O)cn21 [Example 52, (S)-6-(tert-butyl)-1-fluoro-11-(isothiazol-4-yl)-2-oxo-6,7-dihydro-2H-benzofuro[2,3-a]quinolizine-3-carboxylic acid] | > 25 | < 0.1 |
| CC(C)(C)[C@@H]1Cc2c(oc3c(C#N)cccc23)-c2c(F)c(=O)c(C(=O)O)cn21 [Example 53, (S)-6-(tert-butyl)-11-cyano-1-fluoro-2-oxo-6,7-dihydro-2H-benzofuro[2,3-a]quinolizine-3-carboxylic acid] | > 25 | < 0.1 |
| CC(C)(C)[C@@H]1Cc2c(oc3c(-c4cccs4)cccc23)-c2c(F)c(=O)c(C(=O)O)cn21 [Example 54, (S)-6-(tert-butyl)-1-fluoro-2-oxo-11-(thiophen-2-yl)-6,7-dihydro-2H-benzofuro[2,3-a]quinolizine-3-carboxylic acid] | > 25 | < 0.1 |
| Cn1cc(-c2cccc3c4c(oc23)-c2c(F)c(=O)c(C(=O)O)cn2[C@H](C(C)(C)C)C4)cn1 [Example 55, (S)-6-(tert-butyl)-1-fluoro-11-(1-methyl-1H-pyrazol-4-yl)-2-oxo-6,7-dihydro-2H-benzofuro[2,3-a]quinolizine-3-carboxylic acid] | > 25 | < 0.1 |
| CC(C)(C)[C@@H]1Cc2c(oc3c(-c4ccsc4)cccc23)-c2c(F)c(=O)c(C(=O)O)cn21 [Example 57, (S)-6-(tert-butyl)-1-fluoro-2-oxo-11-(thiophen-3-yl)-6,7-dihydro-2H-benzofuro[2,3-a]quinolizine-3-carboxylic acid] | > 25 | < 0.1 |
| CC(C)(C)[C@@H]1Cc2c(oc3c(-c4cnco4)cccc23)-c2c(F)c(=O)c(C(=O)O)cn21 [Example 58, (S)-6-(tert-butyl)-1-fluoro-11-(oxazol-5-yl)-2-oxo-6,7-dihydro-2H-benzofuro[2,3-a]quinolizine-3-carboxylic acid] | > 25 | < 0.1 |
| Cn1nccc1-c1cccc2c3c(oc12)-c1c(F)c(=O)c(C(=O)O)cn1[C@H](C(C)(C)C)C3 [Example 59, (S)-6-(tert-butyl)-1-fluoro-11-(1-methyl-1H-pyrazol-5-yl)-2-oxo-6,7-dihydro-2H-benzofuro[2,3-a]quinolizine-3-carboxylic acid] | > 25 | < 0.1 |
| CC(C)(C)[C@@H]1Cc2c(oc3c(-c4nccs4)cccc23)-c2c(F)c(=O)c(C(=O)O)cn21 [Example 61, (S)-6-(tert-butyl)-1-fluoro-2-oxo-11-(thiazol-2-yl)-6,7-dihydro-2H-benzofuro[2,3-a]quinolizine-3-carboxylic acid] | > 25 | < 0.1 |
| CC(C)(C)[C@@H]1Cc2c(oc3c(-c4cscn4)cccc23)-c2c(F)c(=O)c(C(=O)O)cn21 [Example 62, (S)-6-(tert-butyl)-1-fluoro-2-oxo-11-(thiazol-4-yl)-6,7-dihydro-2H-benzofuro[2,3-a]quinolizine-3-carboxylic acid] | 10 to 25 | < 0.1 |
| CC(C)(C)[C@@H]1Cc2c(oc3c(-n4cccn4)cccc23)-c2c(F)c(=O)c(C(=O)O)cn21 [Example 63, (S)-6-(tert-butyl)-1-fluoro-2-oxo-11-(1H-pyrazol-1-yl)-6,7-dihydro-2H-benzofuro[2,3-a]quinolizine-3-carboxylic acid] | > 25 | < 0.1 |
| Cc1cccc2c3c(oc12)-c1c(F)c(=O)c(C(=O)O)cn1[C@H](C(C)(C)C)C3 [Example 64, (S)-6-(tert-butyl)-1-fluoro-11-methyl-2-oxo-6,7-dihydro-2H-benzofuro[2,3-a]quinolizine-3-carboxylic acid] | > 25 | < 0.1 |
| CC(C)(C)[C@@H]1Cc2c(oc3c(C4CC4)cccc23)-c2c(F)c(=O)c(C(=O)O)cn21 [Example 65, (S)-6-(tert-butyl)-11-cyclopropyl-1-fluoro-2-oxo-6,7-dihydro-2H-benzofuro[2,3-a]quinolizine-3-carboxylic acid] | > 25 | < 0.1 |
| CC(C)[C@@H]1Cc2c(oc3c(-c4ccoc4)cccc23)-c2cc(=O)c(C(=O)O)cn21 [Example 66, (S)-11-(furan-3-yl)-6-isopropyl-2-oxo-6,7-dihydro-2H-benzofuro[2,3-a]quinolizine-3-carboxylic acid] | 10 to 25 | < 0.1 |
| CC(C)[C@@H]1Cc2c(oc3c(-c4ccco4)cccc23)-c2cc(=O)c(C(=O)O)cn21 [Example 67, (S)-11-(furan-2-yl)-6-isopropyl-2-oxo-6,7-dihydro-2H-benzofuro[2,3-a]quinolizine-3-carboxylic acid] | 10 to 25 | < 0.1 |
| CC(C)[C@@H]1Cc2c(oc3cc(OC(F)F)ccc23)-c2cc(=O)c(C(=O)O)cn21 [Example 68, (S)-10-(difluoromethoxy)-6-isopropyl-2-oxo-6,7-dihydro-2H-benzofuro[2,3-a]quinolizine-3-carboxylic acid] | < 10 | < 0.1 |
| CC(C)[C@@H]1Cc2c(oc3cc(C#N)ccc23)-c2cc(=O)c(C(=O)O)cn21 [Example 69, (S)-10-cyano-6-isopropyl-2-oxo-6,7-dihydro-2H-benzofuro[2,3-a]quinolizine-3-carboxylic acid] | > 25 | < 0.1 |
| CC(C)[C@@H]1Cc2c(oc3c(-c4cnsc4)cccc23)-c2cc(=O)c(C(=O)O)cn21 [Example 70, (S)-6-isopropyl-11-(isothiazol-4-yl)-2-oxo-6,7-dihydro-2H-benzofuro[2,3-a]quinolizine-3-carboxylic acid] | > 25 | < 0.1 |
| CC(C)[C@@H]1Cc2c(oc3c(N4CCC(F)(F)C4)cccc23)-c2cc(=O)c(C(=O)O)cn21 [Example 71] | < 10 | < 0.1 |
| CC(C)[C@@H]1Cc2c(oc3cc(-n4cccn4)ccc23)-c2cc(=O)c(C(=O)O)cn21 [Example 72, (S)-6-isopropyl-2-oxo-10-(1H-pyrazol-1-yl)-6,7-dihydro-2H-benzofuro[2,3-a]quinolizine-3-carboxylic acid] | < 10 | < 0.1 |
| Cc1ccc2c3c(oc2c1)-c1cc(=O)c(C(=O)O)cn1[C@H](C(C)C)C3 [Example 73, (S)-6-isopropyl-10-methyl-2-oxo-6,7-dihydro-2H-benzofuro[2,3-a]quinolizine-3-carboxylic acid] | > 25 | < 0.1 |
| CC(C)[C@@H]1Cc2c(oc3cc(C4CC4)ccc23)-c2cc(=O)c(C(=O)O)cn21 [Example 74, (S)-10-cyclopropyl-6-isopropyl-2-oxo-6,7-dihydro-2H-benzofuro[2,3-a]quinolizine-3-carboxylic acid] | 10 to 25 | < 0.1 |
